In the supplement of paper PMC13380429:
± gives the standard deviation of the averaged measurements.

Legend:
U2OS [1] = experiment: cell viability relative to DMSO; higher = less toxic; conditions: 72 h
Vero E6 [2] = experiment: as above; conditions: 72 h
Calu-3 [3] = experiment: as above; conditions: 72 h
HepG2 [4] = experiment: as above; conditions: 72 h
Caco-2 [5] = experiment: as above; conditions: 72 h
[6] = tested on: A549-ACE2 infected with SARS-CoV-2; experiment: SARS-CoV-2 infection rate relative to DMSO; higher = more infection; conditions: 24 h
A549-ACE2 = experiment: drug-induced phospholipidosis relative to tamoxifen; higher = more phospholipidosis
[7] = tested on: A549-ACE2 infected with SARS-CoV-2; experiment: cell count relative to DMSO; higher = less toxic; conditions: 24 h
U2OS [8] = experiment: drug sensitivity score (DSS) for viability; higher = more toxic; extreme values may be limits of the assay; conditions: 72 h
Vero E6 [9] = experiment: as above; conditions: 72 h
Calu-3 [10] = experiment: as above; conditions: 72 h
HepG2 [11] = experiment: as above; conditions: 72 h
Caco-2 [12] = experiment: as above; conditions: 72 h
[13] = tested on: A549-ACE2 infected with SARS-CoV-2; experiment: morphology score (similarity to uninfected cells); higher = more like uninfected cells; conditions: 24 h
U2OS [14] = experiment: relative viability EC50 (midpoint between 100% and the lowest measured viability); higher = less toxic; conditions: 72 h
Vero E6 [15] = experiment: as above; conditions: 72 h
Calu-3 [16] = experiment: as above; conditions: 72 h
HepG2 [17] = experiment: as above; conditions: 72 h
Caco-2 [18] = experiment: as above; conditions: 72 h

COc1ccc2cc1Oc1ccc(cc1)C[C@H]1c3c(cc4c(c3Oc3cc5c(cc3OC)CCN(C)[C@@H]5C2)OCO4)CCN1C [cepharanthine]
Conditions	SARS-CoV-2 infection rate, [6] [%]	cell count, [7] [%]	cell viability, Caco-2 [5] [%]	cell viability, Calu-3 [3] [%]	cell viability, HepG2 [4] [%]	cell viability, U2OS [1] [%]	cell viability, Vero E6 [2] [%]	morphology score, [13]
1 nM	–	–	93.5	105	99.5	95.7	95.7	–
10 nM	–	–	102	107	87.8	104	98.8	–
100 nM	–	–	105	99.3	95.9	97	96	–
0.3 µM	98	104	–	–	–	–	–	0.04
1000 nM	–	–	108	96.5	87.7	97.7	88.9	–
3 µM	75	111	–	–	–	–	–	0.53
10000 nM	–	–	93.1	78.7	93.7	86.5	92.9	–
10 µM	69	122	–	–	–	–	–	0.79
30 µM	27	104	–	–	–	–	–	0.49

drug-induced phospholipidosis [%], A549-ACE2
Conditions	0.3 µM	0.833333 µM	3.33333 µM	6.66667 µM	10 µM	30 µM
24 h	9.38	2.99	21.4	34.2	49.7	34.6
48 h	6.7	5.05	19.4	29.3	35.4	–
72 h	6.61	3.04	15.2	24.3	32.4	–

Conditions	drug sensitivity score	relative viability EC50 [µM]
Caco-2 [12]	0	–
Caco-2 [18]	–	> 10
Calu-3 [10]	1.2	–
Calu-3 [16]	–	> 10
HepG2 [11]	0	–
HepG2 [17]	–	> 10
U2OS [8]	0.3	–
U2OS [14]	–	> 10
Vero E6 [9]	0	–
Vero E6 [15]	–	> 10

CCN(CC)Cc1cc(Nc2ccnc3cc(Cl)ccc23)ccc1O [amodiaquine]
Conditions	SARS-CoV-2 infection rate, [6] [%]	cell count, [7] [%]	cell viability, Caco-2 [5] [%]	cell viability, Calu-3 [3] [%]	cell viability, HepG2 [4] [%]	cell viability, U2OS [1] [%]	cell viability, Vero E6 [2] [%]	morphology score, [13]
1 nM	–	–	99.3	114	103	98.5	101	–
10 nM	–	–	92.1	110	79	101	99.3	–
100 nM	–	–	90.2	106	85.7	103	101	–
0.3 µM	87	109	–	–	–	–	–	0.38
1000 nM	–	–	96.7	91.5	85.7	98.1	95.3	–
3 µM	24	121	–	–	–	–	–	0.87
10000 nM	–	–	58.5	81.8	57.7	93.9	84.9	–
10 µM	12	133	–	–	–	–	–	0.76
30 µM	14	121	–	–	–	–	–	0.1

Conditions	drug sensitivity score	relative viability EC50 [µM]
Caco-2 [12]	2.6	–
Calu-3 [10]	1.3	–
Calu-3 [16]	–	> 10
HepG2 [11]	5.5	–
U2OS [8]	0	–
U2OS [14]	–	> 10
Vero E6 [9]	0.6	–
Vero E6 [15]	–	> 10

CCCc1c(OCC(O)COc2ccc3c(=O)cc(C(=O)O)oc3c2CCC)ccc(C(C)=O)c1O (stereo not drawn)
cell viability [%]
Conditions	Caco-2 [5]	Calu-3 [3]	HepG2 [4]	U2OS [1]	Vero E6 [2]
1 nM	99.1	107	99.8	104	102
10 nM	92.4	90.8	107	95.5	105
100 nM	93.6	99.7	96.9	102	97.2
1000 nM	102	102	103	97.4	97.9
10000 nM	95	109	92.4	98.9	89.6

Conditions	drug sensitivity score	relative viability EC50 [µM]
Caco-2 [12]	0	–
Caco-2 [18]	–	> 10
Calu-3 [10]	0	–
Calu-3 [16]	–	> 10
HepG2 [11]	0	–
HepG2 [17]	–	> 10
U2OS [8]	0	–
U2OS [14]	–	> 10
Vero E6 [9]	0	–
Vero E6 [15]	–	> 10

C[C@@H](Oc1ccc(Cl)cc1)c1ccnc2ncnn12
cell viability [%]
Conditions	Caco-2 [5]	Calu-3 [3]	HepG2 [4]	U2OS [1]	Vero E6 [2]
1 nM	97.2	118	95	95.8	96.2
10 nM	91.7	97.6	102	94.3	97.7
100 nM	94	100	92.7	99.3	90.1
1000 nM	109	89.7	96.3	99.9	96.2
10000 nM	93	95	107	99.2	106

Conditions	drug sensitivity score	relative viability EC50 [µM]
Caco-2 [12]	0	–
Caco-2 [18]	–	> 10
Calu-3 [10]	0	–
Calu-3 [16]	–	> 10
HepG2 [11]	0	–
HepG2 [17]	–	> 10
U2OS [8]	0	–
U2OS [14]	–	> 10
Vero E6 [9]	0	–
Vero E6 [15]	–	> 10

CC(C)(C)NCC(O)c1ccc(O)c(CO)c1 (stereo not drawn) [albuterol]
cell viability [%]
Conditions	Caco-2 [5]	Calu-3 [3]	HepG2 [4]	U2OS [1]	Vero E6 [2]
1 nM	101 ± 2	98.2 ± 3.3	108 ± 2.9	101 ± 2.5	106 ± 2.5
10 nM	101 ± 14	97.2 ± 3.8	96.1 ± 2.7	98.5 ± 4	94.8 ± 5.2
100 nM	90.9 ± 2.3	96.2 ± 6.6	98.5 ± 15	97 ± 2.5	99.5 ± 3
1000 nM	96.3 ± 1.5	103 ± 6	100 ± 14	97.6 ± 3.7	97.8 ± 0.42
10000 nM	102 ± 7.1	103 ± 9.1	91.6 ± 11	96.2 ± 2.9	101 ± 3.8

Conditions	drug sensitivity score	relative viability EC50 [µM]
Caco-2 [12]	0	–
Caco-2 [18]	–	> 10
Calu-3 [10]	0	–
Calu-3 [16]	–	> 10
HepG2 [11]	0.55 ± 0.78	–
HepG2 [17]	–	> 10
U2OS [8]	0	–
U2OS [14]	–	> 10
Vero E6 [9]	0	–
Vero E6 [15]	–	> 10
